In patent US9169243B2, “Apoptosis signal-regulating kinase inhibitors” (Gilead Sciences, Inc., priority 2013, dated 2015):

molecular target: recombinant human ASK1 kinase (Homo sapiens (Human), UniProt Q99683); assay: TR-FRET ASK1 (Apoptosis Signal-Regulating Kinase 1) kinase assay; assay type: biochemical; conditions: TR-FRET/HTRF, 4 nM ASK1, 1 μM STK3 peptide substrate, 100 μM ATP, 3 hr; average of quadruplicate determination
Text: I. TR-FRET ASK1 (Apoptosis Signal-Regulating Kinase 1) Kinase Assay
To evaluate the inhibitory activity of compounds of the invention against ASK1 (Apoptosis Signal-regulating Kinase 1) kinase, its activity was examined using a TR-FRET ASK1 kinase assay which determined the amount of phosphate transferred to a peptide substrate from ATP.
Dephosphorylated recombinant human ASK1 kinase was from Gilead Sciences. Small molecule kinase inhibitor staurosporine (Catalogue #S6942) and dithiothreitol (DTT, catalogue #43815-5G) were obtained from Sigma Chemicals (St. Louis, Mo.). ATP (catalogue #7724) was from Affymetrix (Santa Clara, Calif.) and test compounds were from Gilead Sciences. HTRF KinEASE™-STK S3 kit was obtained from Cisbio (Bedford, Mass.). All other reagents were of the highest grade commercially available.
The assay measures the phosphorylation level of a biotinylated peptide substrate by the ASK1 kinase using HTRF detection. This is a competitive, time-resolved fluorescence resonance energy transfer (TR-FRET) immunoassay, based on HTRF® KinEASE™-STK manual from Cisbio. Test compound, 1 μM STK3 peptide substrate, 4 nM of ASK1 kinase were incubated with 10 mM MOP buffer, pH. 7.0 containing 10 mM Mg-acetate, 0.025% NP-40, 1 mM DTT, 0.05% BSA and 1.5% glycerol for 30 minutes then 100 μM ATP was added to start the kinase reaction and incubated for 3 hr. Peptide antibody labeled with 1×Eu^3+ Cryptate buffer containing 10 mM EDTA and 125 nM Streptavidin XL665 were added to stop the reaction and phosphorylated peptide substrate was detected using Envision 2103 Multilabeled reader from PerkinElmer. The fluorescence was measured at 615 nm (Cryptate) and 665 nm (XL665) and a ratio of 665 nm/615 nm was calculated for each well. The resulting TR-FRET level (a ratio of 665 nm/615 nm) was proportional to the phosphorylation level. Under these assay conditions, the degree of phosphorylation of peptide substrate was linear with time and concentration for the enzyme. The assay system yielded consistent results with regard to Km and specific activities for the enzyme. For inhibition experiments (IC50 values), activities were performed with constant concentrations of ATP, peptide and several fixed concentrations of inhibitors. Staurosporine, the nonselective kinase inhibitor, was used as the positive control. All enzyme activity data are reported as an average of quadruplicate determination.
The IC50 values were calculated following equation: y=Range/{1+(x/IC50)^s}+Background where x and y represent the concentration of inhibitors and enzyme activity, respectively. Enzyme activity is expressed as the amount of Phosphate incorporated into substrate peptide from ATP. Range is the maximum y range (no inhibitor, DMSO control) and s is a slope factor.

recombinant human ASK1 kinase, sequence (Q99683 whole entry): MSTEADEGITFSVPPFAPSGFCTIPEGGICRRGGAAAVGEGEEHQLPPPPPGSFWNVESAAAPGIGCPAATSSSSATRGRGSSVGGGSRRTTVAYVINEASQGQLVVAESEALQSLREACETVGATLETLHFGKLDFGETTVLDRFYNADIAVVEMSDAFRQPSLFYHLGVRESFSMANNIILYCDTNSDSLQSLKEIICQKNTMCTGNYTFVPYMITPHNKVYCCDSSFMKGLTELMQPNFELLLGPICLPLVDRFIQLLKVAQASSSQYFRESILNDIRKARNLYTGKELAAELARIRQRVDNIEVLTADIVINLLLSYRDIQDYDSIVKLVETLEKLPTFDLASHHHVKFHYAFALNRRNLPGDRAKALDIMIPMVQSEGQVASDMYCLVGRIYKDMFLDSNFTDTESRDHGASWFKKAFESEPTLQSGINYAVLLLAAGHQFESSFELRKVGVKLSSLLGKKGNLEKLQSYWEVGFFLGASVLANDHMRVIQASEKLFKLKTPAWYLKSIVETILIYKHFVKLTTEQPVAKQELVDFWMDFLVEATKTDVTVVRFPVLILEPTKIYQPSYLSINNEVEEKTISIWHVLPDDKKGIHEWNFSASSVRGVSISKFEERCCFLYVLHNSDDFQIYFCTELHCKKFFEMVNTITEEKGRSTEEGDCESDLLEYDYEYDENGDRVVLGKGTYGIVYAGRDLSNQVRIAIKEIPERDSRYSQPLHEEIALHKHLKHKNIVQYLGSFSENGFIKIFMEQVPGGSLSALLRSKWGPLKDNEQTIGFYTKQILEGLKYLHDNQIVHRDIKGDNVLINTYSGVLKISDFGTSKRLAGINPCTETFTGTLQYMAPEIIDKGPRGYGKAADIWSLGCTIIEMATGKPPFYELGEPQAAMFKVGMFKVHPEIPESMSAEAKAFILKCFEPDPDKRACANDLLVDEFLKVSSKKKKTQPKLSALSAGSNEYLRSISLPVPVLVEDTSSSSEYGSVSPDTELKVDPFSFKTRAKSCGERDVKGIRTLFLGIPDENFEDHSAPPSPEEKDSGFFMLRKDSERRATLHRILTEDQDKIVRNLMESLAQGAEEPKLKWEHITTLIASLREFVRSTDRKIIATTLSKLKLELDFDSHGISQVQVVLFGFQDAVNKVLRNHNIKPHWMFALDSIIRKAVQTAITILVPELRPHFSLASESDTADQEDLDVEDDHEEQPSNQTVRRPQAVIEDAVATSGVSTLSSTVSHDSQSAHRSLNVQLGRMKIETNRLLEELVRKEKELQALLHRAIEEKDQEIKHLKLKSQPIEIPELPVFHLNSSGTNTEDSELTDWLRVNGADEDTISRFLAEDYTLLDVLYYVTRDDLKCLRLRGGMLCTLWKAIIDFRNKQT

IC50 | SMILES
1.9 nM | C[C@H](n1cnnc1-c1nc(NC(=O)c2cc(-n3cnc(C4CC4)c3)c(N3CC(N4CCOCC4)C3)cn2)cs1)C(F)(F)F [Compound 41, (S)-4-(4-cyclopropyl-1H-imidazol-1-yl)-5-(3-morpholinoazetidin-1-yl)-N-(2-(4-(1,1,1-trifluoropropan-2-yl)-4H-1,2,4-triazol-3-yl)thiazol-4-yl)picolinamide]
1.9 nM | C[C@H](n1cnnc1-c1nc(NC(=O)c2cc(-n3cnc(C4CC4)c3)c(N3CCCOCC3)cn2)cs1)C(F)(F)F [Compound 36, (S)-4-(4-cyclopropyl-1H-imidazol-1-yl)-5-(1,4-oxazepan-4-yl)-N-(2-(4-(1,1,1-trifluoropropan-2-yl)-4H-1,2,4-triazol-3-yl)thiazol-4-yl)picolinamide]
1.5 nM | C[C@H](n1cnnc1-c1nc(NC(=O)c2cc(-n3cnc(C4CC4)c3)c(N3CCC(C(F)(F)F)CC3)cn2)cs1)C(F)(F)F [Compound 32, (S)-4-(4-cyclopropyl-1H-imidazol-1-yl)-5-(4-(trifluoromethyl)piperidin-1-yl)-N-(2-(4-(1,1,1-trifluoropropan-2-yl)-4H-1,2,4-triazol-3-yl)thiazol-4-yl)picolinamide]
2.2 nM | COC1(C)CCN(c2cnc(C(=O)Nc3csc(-c4nncn4[C@@H](C)C(F)(F)F)n3)cc2-n2cnc(C3CC3)c2)CC1 [Compound 35, (S)-4-(4-cyclopropyl-1H-imidazol-1-yl)-5-(4-methoxy-4-methylpiperidin-1-yl)-N-(2-(4-(1,1,1-trifluoropropan-2-yl)-4H-1,2,4-triazol-3-yl)thiazol-4-yl)picolinamide]
2.1 nM | C[C@H](n1cnnc1-c1nc(NC(=O)c2cc(-n3cnc(C4CC4)c3)c(N3CCC4(CC3)COC4)cn2)cs1)C(F)(F)F [Compound 44, (S)-4-(4-cyclopropyl-1H-imidazol-1-yl)-5-(2-oxa-7-azaspiro[3.5]nonan-7-yl)-N-(2-(4-(1,1,1-trifluoropropan-2-yl)-4H-1,2,4-triazol-3-yl)thiazol-4-yl)picolinamide]
1.9 nM | O=C(Nc1csc(-c2nncn2C2CC2)n1)c1cc(-n2cnc(C3CC3)c2)c(N2CCC3(CC2)COC3)cn1 [Compound 21, 4-(4-cyclopropylimidazol-1-yl)-N-[2-(4-cyclopropyl-1,2,4-triazol-3-yl)-1,3-thiazol-4-yl]-5-(2-oxa-7-azaspiro[3.5]nonan-7-y!)pyridine-2-carboxamide]

More lines, now with the values behind:

SMILES | IC50
CNC(=O)C1CCN(c2cnc(C(=O)Nc3csc(-c4nncn4C4CC4)n3)cc2-n2cnc(C3CC3)c2)CC1 [Compound 11, 4-(4-cyclopropylimidazol-1-yl)-N-[2-(4-cyclopropyl-1,2,4-triazol-3-yl)-1,3-thiazol-4-yl]-5-[4-(methylcarbamoyl)piperidin-1-yl]pyridine-2-carboxamide] | 0.4 nM
O=C(Nc1csc(-c2nncn2C2CC2)n1)c1cc(-n2cnc(C3CC3)c2)c(N2CCC(C(F)(F)F)CC2)cn1 [Compound 7, 4-(4-cyclopropylimidazol-1-yl)-N-[2-(4-cyclopropyl-1,2,4-triazol-3-yl)-1,3-thiazol-4-yl]-5-[4-(trifluoromethyl)piperidin-1-yl]pyridine-2-carboxamide] | 3.2 nM
C[C@H](n1cnnc1-c1nc(NC(=O)c2cc(-n3cnc(C4CC4)c3)c(N3CCN4C(=O)OCC4C3)cn2)cs1)C(F)(F)F (stereo partly drawn) [Compound 39, 4-(4-cyclopropyl-1H-imidazol-1-yl)-5-(3-oxotetrahydro-1H-oxazolo[3,4-a]pyrazin-7(3H)-yl)-N-(2-(4-((S)-1,1,1-trifluoropropan-2-yl)-4H-1,2,4-triazol-3-yl)thiazol-4-yl)picolinamide] | 2.3 nM
C[C@H](n1cnnc1-c1nc(NC(=O)c2cc(-n3cnc(C4CC4)c3)c(N3CC(C(F)F)C3)cn2)cs1)C(F)(F)F [Compound 26, (S)-4-(4-cyclopropyl-1H-imidazol-1-yl)-5-(3-(difluoromethyl)azetidin-1-yl)-N-(2-(4-(1,1,1-trifluoropropan-2-yl)-4H-1,2,4-triazol-3-yl)thiazol-4-yl)picolinamide] | 1.7 nM
O=C(Nc1csc(-c2nncn2C2CC2)n1)c1cc(-n2cnc(C3CC3)c2)c(N2CCN(C3CC3)CC2)cn1 [Compound 19, 4-(4-cyclopropylimidazol-1-yl)-5-(4-cyclopropylpiperazin-1-yl)-N-[2-(4-cyclopropyl-1,2,4-triazol-3-yl)-1,3-thiazol-4-yl]pyridine-2-carboxamide] | 2.8 nM
COC1CCN(c2cnc(C(=O)Nc3csc(-c4nncn4C4CC4)n3)cc2-n2cnc(C3CC3)c2)CC1 [Compound 10, 4-(4-cyclopropylimidazol-1-yl)-N-[2-(4-cyclopropyl-1,2,4-triazol-3-yl)-1,3-thiazol-4-yl]-5-(4-methoxypiperidin-1-yl)pyridine-2-carboxamide] | 3.2 nM
O=C(Nc1csc(-c2nncn2C2CC2)n1)c1cc(-n2cnc(C3CC3)c2)c(N2CC(F)(F)C2)cn1 [Compound 5, 4-(4-cyclopropylimidazol-1-yl)-N-[2-(4-cyclopropyl-1,2,4-triazol-3-yl)-1,3-thiazol-4-yl]-5-(3,3-difluoroazetidin-1-yl)pyridine-2-carboxamide] | 2.8 nM
CC1(C#N)CN(c2cnc(C(=O)Nc3csc(-c4nncn4C4CC4)n3)cc2-n2cnc(C3CC3)c2)C1 [Compound 3, 5-(3-cyano-3-methylazetidin-1-yl)-4-(4-cyclopropyiimidazol-1-yl)-N-[2-(4-cyclopropyl-1,2,4-triazol-3-yl)-1,3-thiazol-4-yl]pyridine-2-carboxamide] | 1.9 nM
O=C(Nc1csc(-c2nncn2C2CC2)n1)c1cc(-n2cnc(C3CC3)c2)c(N2CCN(CC(F)(F)F)CC2)cn1 [Compound 13, 4-(4-cyclopropylimidazol-1-yl)-N-[2-(4-cyclopropyl-1,2,4-triazol-3-yl)-1,3-thiazol-4-yl]-5-[4-(2,2,2-trifluoroethyl)piperazin-1-yl]pyridine-2-carboxamide] | 2.9 nM
COCC1CN(c2cnc(C(=O)Nc3csc(-c4nncn4[C@@H](C)C(F)(F)F)n3)cc2-n2cnc(C3CC3)c2)C1 [Compound 23, (S)-4-(4-cyclopropyl-1H-imidazol-1-yl)-5-(3-(methoxymethyl)azetidin-1-yl)-N-(2-(4-(1,1,1-trifluoropropan-2-yl)-4H-1,2,4-triazol-3-yl)thiazol-4-yl)picolinamide] | 2 nM
COC1(C)CN(c2cnc(C(=O)Nc3csc(-c4nncn4[C@@H](C)C(F)(F)F)n3)cc2-n2cnc(C3CC3)c2)C1 [Compound 25, (S)-4-(4-cyclopropyl-1H-imidazol-1-yl)-5-(3-methoxy-3-methylazetidin-1-yl)-N-(2-(4-(1,1,1-trifluoropropan-2-yl)-4H-1,2,4-triazol-3-yl)thiazol-4-yl)picolinamide] | 2 nM
C[C@H](n1cnnc1-c1nc(NC(=O)c2cc(-n3cnc(C4CC4)c3)c(N3CC4CN(C)CC4C3)cn2)cs1)C(F)(F)F (stereo partly drawn) [Compound 38, 4-(4-cyclopropyl-1H-imidazol-1-yl)-5-(5-methylhexahydropyrrolo[3,4-c]pyrrol-2(1H)-yl)-N-(2-(4-((S)-1,1,1-trifluoropropan-2-yl)-4H-1,2,4-triazol-3-yl)thiazol-4-yl)picolinamide] | 2.4 nM
COC1(C)CN(c2cnc(C(=O)Nc3csc(-c4nncn4C4CC4)n3)cc2-n2cnc(C3CC3)c2)C1 [Compound 4, 4-(4-cyclopropylimidazol-1-yl)-N-[2-(4-cyclopropyl-1,2,4-triazol-3-yl)-1,3-thiazol-4-yl]-5-(3-methoxy-3-methylazetidin-1-yl)pyridine-2-carboxamide] | 1.8 nM
C[C@H](n1cnnc1-c1nc(NC(=O)c2cc(-n3cnc(C4CC4)c3)c(N3CC4CC4C3)cn2)cs1)C(F)(F)F (stereo partly drawn) [Compound 40, 5-(3-azabicyclo[3.1.0]hexan-3-yl)-4-(4-cyclopropyl-1H-imidazol-1-yl)-N-(2-(4-((S)-1,1,1-trifluoropropan-2-yl)-4H-1,2,4-triazol-3-yl)thiazol-4-yl)picolinamide] | 2.2 nM
